This note sets out measurements from patent publication US6933315B2, “Derivatives of isoindigo, indigo and indirubin and methods of treating cancer” (priority 2001, dated 2005).

Read-outs that look alike come from different tables or passages of the source.

Data set [1] relates to extracellular signal-regulated protein kinase 2 (ERK2). In words: ERK2 activity from treated LNCaP cells. The note with it: as high as 15 μM, 24 hrs. Type of data set: cell-based, Human. The method, then:
Assay for cyclin dependent kinase activity: HUVEC and LNCaP cells were cultured in EMB (endothelial cell basal medium) and RPMI 1640 containing 10% FBS, respectively. The cells grown exponentially were exposed to indicated concentrations of meisoindigo or NATURA for 24 hr. The cells were harvested, washed, and total proteins extracted as described previously. One hundred μg of the proteins were immuno-precipitated using antibodies against cdk2, cdk4/6, PKC, ERK2 or cyclin D1 overnight at 4° C. in the presence of a cocktail of protease inhibitors. […] The phosphorylated histone H1 (represent cdk activity) was measured by scintillation counting or by SDS-polyacrylaimde gel electrophoresis. The direct inhibitory effects of Meisoindigo and NATURA were also measured by reaction of immuno-purified specific enzyme from untreated cells directly with the Meisoindigo or NATURA. […]
LNCaP cells at exponential growth phase were exposed to different concentrations of NATURA (panel A & B) for 24 hrs, or to PD98059 (panel C) for 15 min. […] Upper panels are the imagines of x-ray films from SDS-PAGE, and lower panels represent the densities of each band from the films determined by an Imagine Densitometer from the same films (expressed as the percent of control).

On the set-up of data set [2]: species or system dogs. The note with it: dog, in vivo. The protocol:
Two dogs were initially tested for sub-acute toxicity of Meisoindigo. They were orally given 10 mg/kg daily for 3 months.
Since no major toxicities were found during the initial study, an additional 3 dogs were tested by orally giving them a higher dose (20 mg/kg). Among them, one dog was given 20 mg/kg for 46 days, and another 2 dogs given for 2 months. […] However, all of those symptoms disappeared after the termination of the treatment of Meisoindigo.

On to `CC(=O)OC1COC(N2C(=O)/C(=C3/C(=O)Nc4ccccc43)c3ccccc32)C(OC(C)=O)C1OC(C)=O` [NATURA, 1-(β-D-O-Triacetyl-xylopyranosyl)-isoindigo], for which the “effect on ERK2 activity” value in data set [1] is recorded as “No inhibitory effect”.

In the case of `CN1C(=O)/C(=C2/C(=O)Nc3ccccc32)c2ccccc21` [Meisoindigo], the histochemical examinations result in data set [2] was “cellular edema, fatty degeneration, and scatter hyperplasia inflammation in liver tissues”. Also, in data set [2] (po, 10 mg/kg), the “biochemical changes of blood, liver, and kidney” value was “No biochemical changes”; the clinical observations entry is “Minor gastro intestinal irritations were observed occasionally”. For the same compound, in data set [2] (po, 20 mg/kg), the clinical observations result is listed as “intestinal irritations at various degrees” and the tested parameters entry was “No abnormalities”.
